In patent US6737383B1, “Herbicidal oxadiazolidines” (priority 1999, dated 2004):

Columns and labels:
[1] = system: rice; assay: Test B flood test rice; type: in vivo, Oryza sativa; details: Pre-emergence
In short: (§1)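 Flood test on plants grown to the 2-leaf stage; treated plants kept in greenhouse twelve to sixteen days, then visually rated against controls on a 0 (no effect) to 10 (complete control) scale.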

[2] = system: velvetleaf; assay: Test B pre/postemergence velvetleaf; type: in vivo, Abutilon theophrasti
In short: (§2)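 Response is a visual 0-to-10 score relative to untreated plants, where 0 means no effect and 10 means complete control, taken twelve to sixteen days after application. Treatments went onto soil at planting and onto foliage of 1- to 4-leaf plants, using a surfactant-containing non-phytotoxic solvent.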

[3] = system: pigweed; assay: Test B pre/postemergence pigweed; type: in vivo, Amaranthus retroflexus
In short: as §2

[4] = system: cocklebur; assay: Test B pre/postemergence cocklebur; type: in vivo, Xanthium strumarium
In short: as §2

[5] = system: blackgrass; assay: Test B pre/postemergence blackgrass; type: in vivo, Alopecurus myosuroides
In short: as §2

[6] = system: bamyardgrass; assay: Test B flood test barnyardgrass; type: in vivo, Echinochloa crus-galli; details: Pre-emergence
In short: as §1

[7] = system: soybean; assay: Test B pre/postemergence soybean; type: in vivo, Glycine max
In short: as §2

[8] = system: crabgrass; assay: Test B pre/postemergence crabgrass; type: in vivo, Digitaria sanguinalis
In short: as §2

[9] = system: bedstraw; assay: Test B pre/postemergence bedstraw; type: in vivo, Galium aparine
In short: as §2

[10] = system: sugar beet; assay: Test B pre/postemergence sugar beet; type: in vivo, Beta vulgaris
In short: as §2

[11] = system: purple nutsedge; assay: Test B pre/postemergence purple nutsedge; type: in vivo, Cyperus rotundus
In short: as §2

[12] = system: wild oat; assay: Test B pre/postemergence wild oat; type: in vivo, Avena fatua
In short: as §2

[13] = system: giant foxtail; assay: Test B pre/postemergence giant foxtail; type: in vivo, Setaria faberii
In short: as §2

[14] = system: corn; assay: Test B pre/postemergence corn; type: in vivo, Zea mays
In short: as §2

[15] = system: surinam grass; assay: Test B pre/postemergence surinam grass; type: in vivo, Brachiaria decumbens
In short: as §2

[16] = system: smallflower flatsedge; assay: Test B flood test smallflower flatsedge; type: in vivo, Cyperus difformis; details: Pre-emergence
In short: as §1

[17] = Rate 1000 g/ha, scale 0 to 10 (0 no effect, 10 complete control)
[18] = Rate 125 g/ha, flood test species, scale 0 to 10 where 0 is no effect and 10 is complete control
[19] = Rate 250 g/ha, flood-test species, scale 0 to 10, 0 is no effect, 10 is complete control
[20] = Rate 500 g/ha, flood test species, scale 0 to 10 (0 no effect, 10 complete control)
[21] = Postemergence, Rate 1000 g/ha, scale 0 to 10 (0 no effect, 10 complete control)
[22] = Preemergence, Rate 250 g/ha, scale of 0 to 10 where 0 is no effect and 10 is complete control
[23] = Preemergence, Rate 500 g/ha, scale of 0 to 10 where 0 is no effect and 10 is complete control
[24] = Rate 125 g/ha, Postemergence, scale of 0 to 10 where 0 is no effect and 10 is complete control
[25] = Rate 125 g/ha, Preemergence, scale of 0 to 10 where 0 is no effect and 10 is complete control
[26] = Rate 250 g/ha, Postemergence, scale of 0 to 10 where 0 is no effect and 10 is complete control
[27] = Rate 500 g/ha, Postemergence, scale 0 to 10, 0 no effect, 10 complete control
[28] = Rate 1000 g/ha, Preemergence, scale 0 to 10 (0 no effect, 10 complete control)

## CCOC(=O)C(C)N(C(=O)n1oc(=O)n(C2CCCCC2)c1=O)c1ccc(F)cc1 (stereo not shown) [Compound 280]
[1]; [17]
  Rice plant response rating: 0
[1]; [18]
  Rice plant response rating: 0
[1]; [19]
  Rice plant response rating: 0
[1]; [20]
  Rice plant response rating: 0
[2]; [21]
  Velvetleaf plant response rating: 0
[2]; [22]
  Velvetleaf plant response rating: 0
[2]; [23]
  Plant response rating, Velvetleaf: 0
[2]; [24]
  Velvetleaf plant response rating: 0
[2]; [25]
  Velvetleaf plant response rating: 0
[2]; [26]
  Plant response rating, Velvetleaf: 0
[2]; [27]
  Velvetleaf plant response rating: 0
[2]; [28]
  Plant response rating, Velvetleaf: 0
[3]; [21]
  Redroot pigweed plant response rating: 3
[3]; [22]
  Redroot pigweed plant response rating: 0
[3]; [23]
  Plant response rating, Redroot pigweed: 0
[3]; [24]
  Redroot pigweed plant response rating: 0
[3]; [25]
  Redroot pigweed plant response rating: 0
[3]; [26]
  Plant response rating, Redroot pigweed: 0
[3]; [27]
  Redroot pigweed plant response rating: 1
[3]; [28]
  Plant response rating, Redroot pigweed: 0
[4]; [21]
  Cocklebur plant response rating: 0
[4]; [22]
  Cocklebur plant response rating: 0
[4]; [23]
  Plant response rating, Cocklebur: 0
[4]; [24]
  Cocklebur plant response rating: 0
[4]; [25]
  Cocklebur plant response rating: 0
[4]; [26]
  Plant response rating, Cocklebur: 0
[4]; [27]
  Cocklebur plant response rating: 0
[4]; [28]
  Plant response rating, Cocklebur: 0
[5]; [21]
  Blackgrass plant response rating: 0
[5]; [22]
  Blackgrass plant response rating: 0
[5]; [23]
  Plant response rating, Blackgrass: 0
[5]; [24]
  Blackgrass plant response rating: 0
[5]; [25]
  Blackgrass plant response rating: 0
[5]; [26]
  Plant response rating, Blackgrass: 0
[5]; [27]
  Blackgrass plant response rating: 0
[5]; [28]
  Plant response rating, Blackgrass: 0
[6]; [17]
  Barnyardgrass plant response rating: 0
[6]; [18]
  Barnyardgrass plant response rating: 0
[6]; [19]
  Barnyardgrass plant response rating: 0
[6]; [20]
  Barnyardgrass plant response rating: 0
[7]; [21]
  Soybean plant response rating: 5
[7]; [22]
  Soybean plant response rating: 0
[7]; [23]
  Plant response rating, Soybean: 0
[7]; [24]
  Soybean plant response rating: 1
[7]; [25]
  Soybean plant response rating: 0
[7]; [26]
  Plant response rating, Soybean: 3
[7]; [27]
  Soybean plant response rating: 5
[7]; [28]
  Plant response rating, Soybean: 0
[8]; [21]
  Crabgrass plant response rating: 0
[8]; [22]
  Crabgrass plant response rating: 0
[8]; [23]
  Plant response rating, Crabgrass: 0
[8]; [24]
  Crabgrass plant response rating: 0
[8]; [25]
  Crabgrass plant response rating: 0
[8]; [26]
  Plant response rating, Crabgrass: 0
[8]; [27]
  Crabgrass plant response rating: 0
[8]; [28]
  Plant response rating, Crabgrass: 0
[9]; [21]
  Bedstraw plant response rating: 0
[9]; [22]
  Bedstraw plant response rating: 0
[9]; [23]
  Plant response rating, Bedstraw: 0
[9]; [24]
  Bedstraw plant response rating: 0
[9]; [25]
  Bedstraw plant response rating: 0
[9]; [26]
  Plant response rating, Bedstraw: 0
[9]; [27]
  Bedstraw plant response rating: 0
[9]; [28]
  Plant response rating, Bedstraw: 0
[10]; [21]
  Sugarbeets plant response rating: 0
[10]; [22]
  Sugarbeets plant response rating: 0
[10]; [23]
  Plant response rating, Sugarbeets: 0
[10]; [24]
  Sugarbeets plant response rating: 0
[10]; [25]
  Sugarbeets plant response rating: 0
[10]; [26]
  Plant response rating, Sugarbeets: 0
[10]; [27]
  Sugarbeets plant response rating: 0
[10]; [28]
  Plant response rating, Sugarbeets: 0
[11]; [21]
  Nutsedge plant response rating: 0
[11]; [22]
  Nutsedge plant response rating: 0
[11]; [23]
  Plant response rating, Nutsedge: 0
[11]; [24]
  Nutsedge plant response rating: 0
[11]; [25]
  Nutsedge plant response rating: 0
[11]; [26]
  Plant response rating, Nutsedge: 0
[11]; [27]
  Nutsedge plant response rating: 0
[11]; [28]
  Plant response rating, Nutsedge: 0
[12]; [21]
  Wild oats plant response rating: 0
[12]; [22]
  Wild oats plant response rating: 0
[12]; [23]
  Plant response rating, Wild oats: 0
[12]; [24]
  Wild oats plant response rating: 0
[12]; [26]
  Plant response rating, Wild oats: 0
[12]; [27]
  Wild oats plant response rating: 0
[12]; [28]
  Plant response rating, Wild oats: 0
[13]; [21]
  Giant foxtail plant response rating: 0
[13]; [22]
  Giant foxtail plant response rating: 0
[13]; [23]
  Plant response rating, Giant foxtail: 0
[13]; [24]
  Giant foxtail plant response rating: 0
[13]; [25]
  Giant foxtail plant response rating: 0
[13]; [26]
  Plant response rating, Giant foxtail: 0
[13]; [27]
  Giant foxtail plant response rating: 0
[13]; [28]
  Plant response rating, Giant foxtail: 0
[14]; [21]
  Corn plant response rating: 0
[14]; [22]
  Corn plant response rating: 0
[14]; [23]
  Plant response rating, Corn: 0
[14]; [24]
  Corn plant response rating: 0
[14]; [25]
  Corn plant response rating: 0
[14]; [26]
  Plant response rating, Corn: 0
[14]; [27]
  Corn plant response rating: 0
[14]; [28]
  Plant response rating, Corn: 0
[15]; [21]
  B. signalgrass plant response rating: 0
[15]; [22]
  B. signalgrass plant response rating: 0
[15]; [23]
  Plant response rating, B. signalgrass: 0
[15]; [24]
  B. signalgrass plant response rating: 0
[15]; [25]
  B. signalgrass plant response rating: 0
[15]; [26]
  Plant response rating, B. signalgrass: 0
[15]; [27]
  B. signalgrass plant response rating: 0
[15]; [28]
  Plant response rating, B. signalgrass: 0
[16]; [17]
  S. Flatsedge plant response rating: 0
[16]; [18]
  S. Flatsedge plant response rating: 0
[16]; [19]
  S. Flatsedge plant response rating: 0
[16]; [20]
  S. Flatsedge plant response rating: 0
